# No end group written: not given here.
# Biological target: T1, purified VDAC1 (Homo sapiens, UniProt P21796)
# Assay: Microscale thermophoresis (MST)
# Assay type: binding
# Conditions: not given
# Description: MST analysis was performed using a NanoTemper Monolith NT.115 apparatus as described previously. Briefly, purified VDAC1 was fluorescently labeled using a NanoTemper Protein labeling kit BLUE (L001, NanoTemper Technologies, Munich, Germany). A constant concentration of the protein (66 nM) was incubated with different concentrations of the indicated peptide in MST binding buffer (10 mM tricine-HCl, 100 mM NaCl, pH = 7.4) for 30 min at 37 °C in the dark. Afterwards, 3–5 µl of the samples were loaded into a monolith glass capillary (NanoTemper) and a thermophoresis analysis was performed (LED 80%, IR laser 80%).
# T1 sequence (P21796 whole entry, species assumed): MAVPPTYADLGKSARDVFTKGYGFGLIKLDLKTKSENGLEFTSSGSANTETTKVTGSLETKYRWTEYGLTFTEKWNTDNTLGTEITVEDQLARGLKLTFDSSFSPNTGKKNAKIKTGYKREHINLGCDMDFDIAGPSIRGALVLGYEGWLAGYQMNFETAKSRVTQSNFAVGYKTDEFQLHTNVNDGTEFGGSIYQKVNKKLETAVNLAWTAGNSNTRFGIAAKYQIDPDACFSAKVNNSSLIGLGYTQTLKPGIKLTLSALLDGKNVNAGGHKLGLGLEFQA
row,Sequence,Kd [µM]
1,MVVEHPEFLKAGKEPGLQIWRVEKFRQIKIWFQNRRMKWKK [2G8-Antp],5

# Same assay, conditions: fluorescently labeled VDAC1 66 nM, peptide 2.5-30 µM, 30 min at 37 °C; read-out: Kd
row,Kd [µM],Sequence
1,8,NEFGYSNRVVDLMAHMASKE [2D1]

# Biological target: T1, purified VDAC1
# Assay: Glass-bound peptide array probed with purified VDAC1 and anti-VDAC1 antibodies
# Assay type: binding
# Set-up: key: +: low; ++: medium; +++: high
# Conditions: glass-bound peptide array incubated 4 h with purified VDAC1 (64 nM); antibody against VDAC1 N-terminus; chemiluminescence
# Description: A customized peptide array was produced by INTAVIS Peptide Services (GmbH & Co. KG, Tübingen, Germany). It comprised 768 peptide sequences derived from 19 VDAC1-interacting proteins that were arrayed on a glass slide. Each peptide was composed of 25 amino acids with an overlap of 15 amino acids with the peptides before and following it.
# The interaction of purified VDAC1 with glass-bound peptide arrays was assessed by washing the slide three times, 10 min each, with TBST (150 mM NaCl, 50 mM Tris/HCl, pH 7.4, 0.1% Tween-20), followed by overnight incubation with blocking buffer (TBS, pH 7.8, containing low-fat dry milk, 2.5%, w/v) at 4 °C. Then slides were incubated with purified VDAC1 in protein-interacting buffer (20 mM HEPES, 100 mM KCl, pH,7.4, PBS) for 4 h at room temperature (RT). After washing, with TBST, slides were incubated overnight at 4 °C with anti-VDAC1 antibody against a sequence of 150–250 amino acids or against the VDAC1-N-terminus. Slides were then washed with TBST, followed by the appropriate secondary anti-HRP conjugated antibody for 2 h at RT. They were washed again with TBST and developed using enhanced chemiluminescence EZ-ECL (Biological Industries), according to the manufacturer’s instructions. The signal was captured in the dark using FUSION-FX (Vilber Lourmat) software.
row,"Spot intensity, detected using anti-N-terminus VDAC1",Sequence
1,++,"QVSVLPEGGETPLFKQFFKNWRDPD [2H20, array peptide from gelsolin isoform b]"
2,+,"RAVQHREVQGFESATFLGYFKSGLK [2G18, array peptide from gelsolin isoform b]"
3,+++,"RERLLGWIQDQGGWGLPLAESLKRL [1B12, array peptide from BAX]"
4,+,"RGPTAARHQDSWNGLSHEAFRLVSR [2M21, array peptide from HSP-70]"
5,++,"RVVALFYFASKLVLKALCTKVPELI [1B8, array peptide from BAX]"
6,+,"RYGRELRRMSDEFVDSFKKGLPRPK [1A13, array peptide from BAD]"
7,+++,"SILEIQKGVFEVKSTNGDTFLGGED [2N23, array peptide from HSP-70]"
8,+,"SKLVLKALCTKVPELIRTIMGWTLD [1B9, array peptide from BAX]"
9,++,"SNTTAIAEAWARLDHKFDLMYAKRA [2B6, array peptide from tubulin alpha 1b]"
10,+,"SPFRGRSRSAPPNLWAAQRYGRELR [1A11, array peptide from BAD]"
11,+,"SPPSTLTPDSRRVARPPPIGAEVPD [2D11, array peptide from Mcl-1]"
12,+,"SSWTRVFQSWWDRNLGRGSSAPSQ [1A17, array peptide from BAD]"
13,++,STRIQQQLGQLTLENLQMLPESEDE [2G1]
14,++,"SVKRVTQDPKLQMGKKLPLHLTLPQ [1N4, array peptide from CD4]"
15,+,"TAFQGMLRKLDIKNEDDVKSLSRVM [2E5, array peptide from Mcl-1]"
16,++,"TDVLLLDVTPLSLGIETLGGVFTKL [2O19, array peptide from HSP-70]"
17,+,TEDELPYDDCVFGGQRLTL [2G6]
18,+,"TGSGFTSLLMERLSVDYGKKSKLEF [2A4, array peptide from tubulin alpha 1b]"
19,+++,"TKVPELIRTIMGWTLDFLRERLLGW [1B10, array peptide from BAX]"
20,++,"TPPPAEEEEDELYRQSLEIISRYLR [2D22, array peptide from Mcl-1]"
21,+,"TPVQSRVVQGKEPAHLMSLFGGKPM [2I12, array peptide from gelsolin isoform b]"
22,+,"TVPTPHLDGKHVVFGQVIKGIGVAR [1I7, array peptide from cyclophilin D]"
23,++,"VDCIVRIPKEQGVLSFWRGNLANVI [1F18, array peptide from ANT3]"
24,+++,"VGKSGTEREFRGLGDCLVKITKSDG [1G4, array peptide from ANT3]"
25,+++,"VGKVIPELNGKLTGMAFRVPTANVS [2C14, array peptide from GAPDH1]"
26,+,"VSSITASLRFDGALNVDLTEFQTNL [2A14, array peptide from tubulin alpha 1b]"
27,+,"YKGGTSREGGQTAPASTRLFQVRAN [2I15, array peptide from gelsolin isoform b]"

# Same assay, conditions: glass-bound peptide array incubated 4 h with purified VDAC1 (64 nM); antibody against VDAC1 amino acids 150-250; chemiluminescence
row,"Spot intensity, detected using anti-VDAC1 internal sequence",Sequence
1,+,"RERLLGWIQDQGGWGLPLAESLKRL [1B12, array peptide from BAX]"
2,+++,"SILEIQKGVFEVKSTNGDTFLGGED [2N23, array peptide from HSP-70]"
3,+,"TDVLLLDVTPLSLGIETLGGVFTKL [2O19, array peptide from HSP-70]"
4,+,"TGSGFTSLLMERLSVDYGKKSKLEF [2A4, array peptide from tubulin alpha 1b]"
5,+++,"VSSITASLRFDGALNVDLTEFQTNL [2A14, array peptide from tubulin alpha 1b]"
6,++,"YKSEGTFGIHVAENPSIQLLEGNPG [1L13, array peptide from MAVS]"
7,+,"YQVSPLAARLLYPYLAWLAFTTTLN [1H11, array peptide from TSPO]"

# Source: PMC12669278, “VDAC1-interacting proteins: binding site mapping and their derived peptides induce apoptosis and multifaceted cellular effects” (Apoptosis, 2025)
